Molecules are shown by their SMILES.

In assay [1] the test system is MDA-MB-453. In words: drug sensitivity score (DSS), single agent (DSS (weighted AUC score)); higher = more sensitive (stronger viability decrease); extreme values may be limits of the assay. The settings on record: BLU9931 0 nM; 72 h. The method, boiled down:
(§1)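 Each 384-well plate held compounds from the FIMM Oncology set, predispensed in singlicate at five 10-fold dilutions spanning a 10,000-fold range, and each well then received 2000 MDA-MB-453 cells in medium with or without an FGFR4 inhibitor at 100 nM final. Plates stayed at 37 °C, 5% CO2 for 72 h, after which cellular ATP was measured with CellTiterGlo 2.0. Readings were converted per plate into percent viability against control wells, and the drug sensitivity score was taken as a weighted area under a four-parameter logistic fit.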

Assay [2] deals with MDA-MB-453. In words: drug sensitivity score (DSS), in combination with BLU9931 (DSS (weighted AUC score)); higher = more sensitive (stronger viability decrease); extreme values may be limits of the assay. Conditions: BLU9931 100 nM; 72 h. Put shortly:
as §1

As for `COc1cc2c(Oc3ccc(NC(=O)C4(C(=O)Nc5ccc(F)cc5)CC4)cc3F)ccnc2cc1OCCCN1CCOCC1` [Foretinib], the drug sensitivity score is 1.1 with MDA-MB-453 [1] and 1.2 with MDA-MB-453 [2].
For `CC1(C)NC(=O)N(c2ccc([N+](=O)[O-])c(C(F)(F)F)c2)C1=O` [Nilutamide], the drug sensitivity score in the assay with MDA-MB-453 [1] and in the assay on MDA-MB-453 [2] was 0 in each case.
On to `COc1cc(OC2CCN(C)CC2)ccc1Nc1ncc2c(n1)n(C1CCCC1)c(=O)n2C` [AZ 3146], for which the drug sensitivity score in the assay on MDA-MB-453 [1] turned out to be 2.6; with MDA-MB-453 [2] it was 1.
In the same order, the values of `O=C(Nc1nc2cccc(-c3ccc(CN4CCS(=O)(=O)CC4)cc3)n2n1)C1CC1` [Filgotinib] are 2.9 and 2.5.
In the same order, the values of `O=C(Nc1cc(Cl)cc2c1[nH]c1cnccc12)c1cccnc1` [PS-1145] are 0 and 0.3.
The like results for `C1=N/C2=N/c3ccc(OCCN4CCCC4)c(c3)COC/C=C/COCc3cccc(c3)C(=C1)N2` [Pacritinib] were, in that order, 8.3 and 10.
In the case of `Cn1ncc(Cl)c1-c1cc(C(=O)N[C@H](CN)Cc2cccc(F)c2)sc1Cl` [Afuresertib], the drug sensitivity score with MDA-MB-453 [1] was 7.9; with MDA-MB-453 [2] it was 8.4.
Regarding `CNC(=O)c1ccc2cc([C@@]3(O)CCn4cncc43)ccc2c1` [Orteronel], the drug sensitivity score in the assay on MDA-MB-453 [1] and in the assay with MDA-MB-453 [2] was 0 each time.
For `CC(C)[C@H]1C(=O)N[C@@H](CCCNC(=N)N)C(=O)NCC(=O)N[C@@H](CC(=O)O)C(=O)N[C@H](Cc2ccccc2)C(=O)N1C` [Cilengitide], the drug sensitivity score in the assay with MDA-MB-453 [1] and in the assay on MDA-MB-453 [2] was 0 each time.
As to `COc1cc(NS(C)(=O)=O)ccc1Nc1c2ccccc2nc2ccccc12` [Amsacrine], the drug sensitivity score amounted to 1.2 with MDA-MB-453 [1] and 2 with MDA-MB-453 [2].
In the same order, the values of `Nc1ncn([C@@H]2O[C@H](CO)[C@@H](O)[C@H]2O)c(=O)n1` [Azacitidine] are 0.5 and 0.4.
The like results for `CC[C@@H](C(=O)[C@@H](C)[C@@H](O)[C@H](C)[C@@H]1O[C@@H]([C@@H](CC)C(=O)O)CC[C@@H]1C)[C@H]1O[C@]2(C=C[C@@H](O)[C@]3(CC[C@@](C)([C@H]4CC[C@](O)(CC)[C@H](C)O4)O3)O2)[C@H](C)C[C@@H]1C` [Salinomycin] were, in that order, 6.8 and 3.2.
Regarding `COc1cc(Nc2ncc3c(n2)-c2ccc(Cl)cc2C(c2c(F)cccc2OC)=NC3)ccc1C(=O)O` [Alisertib], the results for the drug sensitivity score in the assay with MDA-MB-453 [1] and in the assay with MDA-MB-453 [2] were 0 and 1.7, respectively.
Regarding `CCCN(CCC)C(=O)C1=Cc2ccc(-c3ccc(C(=O)N4CCCC4)cc3)cc2N=C(N)C1` [Motolimod], the drug sensitivity score amounted to 0.1 with MDA-MB-453 [1] and 0 in the assay with MDA-MB-453 [2].
In the same order, the values of `COc1cccc(OCCCN)c1-c1cc(Nc2cnc(C#N)cn2)n[nH]1` [Prexasertib] are 28 and 23.6.
In the same order, the values of `C[C@H]1C[C@@H](n2c(Nc3ccc(OC(F)(F)F)cc3)nc3cc(CCC(=O)O)ccc32)CC(C)(C)C1` are 0 and 0.
The like results for `CCNC(=O)C[C@@H]1N=C(c2ccc(Cl)cc2)c2cc(OC)ccc2-n2c(C)nnc21` [Molibresib] were, in that order, 10 and 9.8.
Regarding `N#CC[C@H](C1CCCC1)n1cc(-c2ncnc3[nH]ccc23)cn1` [Ruxolitinib], the drug sensitivity score in the assay with MDA-MB-453 [1] was determined as 1.2; in the assay on MDA-MB-453 [2], 0.
In the same order, the values of `CN[C@@H](C)C(=O)N[C@H](C(=O)N1CCC[C@H]1c1nc(C(=O)c2ccc(F)cc2)cs1)C1CCCCC1` [NVP-LCL161] are 8 and 8.1.
In the same order, the values of `COc1cc2ncnc(Nc3ccc(F)c(Cl)c3)c2cc1NC(=O)/C=C/CN1CCCCC1` [Dacomitinib] are 7.3 and 8.6.
In the same order, the values of `Cc1cn(-c2cc(NC(=O)c3ccc(C)c(Nc4nccc(-c5cnccn5)n4)c3)cc(C(F)(F)F)c2)cn1` [Radotinib] are 0 and 2.4.
For `CC[C@H](NC(=O)[C@H](C)NC)C(=O)N1C[C@@H](O)C[C@H]1Cc1c(-c2[nH]c3cc(F)ccc3c2C[C@@H]2C[C@H](O)CN2C(=O)[C@H](CC)NC(=O)[C@H](C)NC)[nH]c2cc(F)ccc12` [Birinapant], the drug sensitivity score amounted to 10.1 with MDA-MB-453 [1] and 15.8 in the assay with MDA-MB-453 [2].
The like results for `CC(C)(C)NC(=O)[C@H]1CC[C@H]2[C@@H]3CC[C@H]4NC(=O)C=C[C@]4(C)[C@H]3CC[C@]12C` [Finasteride] were, in that order, 0.3 and 0.
In the same order, the values of `COc1cc2c(NC3CCN(C(C)C)CC3)nc(C3CCCCC3)nc2cc1OCCCN1CCCC1` [UNC0638] are 0 and 4.9.
The like results for `C[C@@H](C(=O)O)c1ccc(-c2ccccc2)c(F)c1` [Tarenflurbil] were, in that order, 0 and 0.
With `Cn1cc(-c2ccc(F)c(C(F)(F)F)c2)nc1C1CCN(c2ncnc3[nH]ncc23)CC1`, the drug sensitivity score is 1.8 in the assay on MDA-MB-453 [1] and 3.9 in the assay on MDA-MB-453 [2].
In the same order, the values of `CC/C(=C(\c1ccccc1)c1ccc(OCCN(C)C)cc1)c1ccccc1` [Tamoxifen] are 5.3 and 2.4.
For `CN(C)CCOc1ccc(/C(=C(/CCCl)c2ccccc2)c2ccccc2)cc1` [Toremifene], the drug sensitivity score in the assay with MDA-MB-453 [1] was 6; in the assay on MDA-MB-453 [2] it was 4.1.
In the same order, the values of `O=C(NOC[C@H](O)CO)c1ccc(F)c(F)c1Nc1ccc(I)cc1F` are 1.2 and 1.1.
The like results for `CCn1c(-c2nonc2N)nc2cnc(Oc3cccc(NC(=O)c4ccc(OCCN5CCOCC5)cc4)c3)cc21` were, in that order, 3.9 and 3.8.
In the case of `NC(=O)N1CCC(CC(=O)N2CCC([C@H]3c4ncc(Br)cc4CCc4cc(Cl)cc(Br)c43)CC2)CC1` [Lonafarnib], the drug sensitivity score in the assay on MDA-MB-453 [1] and in the assay on MDA-MB-453 [2] was 0 throughout.
Regarding `COc1cc2ncnc(Nc3cccc(Cl)c3F)c2cc1OC(=O)N1CCN(C)C[C@H]1C` [AZD3759], the drug sensitivity score in the assay on MDA-MB-453 [1] stood at 0; with MDA-MB-453 [2] it was 0.9.
Take `O=C(Nc1ccc(OC(F)(F)Cl)cc1)c1cnc(N2CC[C@@H](O)C2)c(-c2cc[nH]n2)c1` [Asciminib]: the drug sensitivity score with MDA-MB-453 [1] was found to be 3.4; in the assay with MDA-MB-453 [2], 1.2.
In the case of `CN(C)C/C=C/C(=O)Nc1cc2c(Nc3ccc(F)c(Cl)c3)ncnc2cc1O[C@H]1CCOC1` [Afatinib], the drug sensitivity score in the assay on MDA-MB-453 [1] was 6.2; in the assay on MDA-MB-453 [2], 10.1.
In the case of `Cc1cc2c(C(=O)NC[C@H](C)c3ccccc3)c(O)c(O)cc2c(O)c1-c1c(C)cc2c(C(=O)NC[C@H](C)c3ccccc3)c(O)c(O)cc2c1O` [Sabutoclax], the figures for the drug sensitivity score in the assay on MDA-MB-453 [1] and in the assay on MDA-MB-453 [2] were 12.6 and 12.4, respectively.
In the same order, the values of `Cc1[nH]c2ccccc2c1CCNCc1ccc(/C=C/C(=O)NO)cc1` [Panobinostat] are 22.2 and 22.4.
In the same order, the values of `CCCCc1nc2cc(/C=C/C(=O)NO)ccc2n1CCN(CC)CC` [Pracinostat] are 22.3 and 19.8.
In the same order, the values of `COc1cc(C)[nH]c(=O)c1CNC(=O)c1c(C)n([C@H](C)C2CCOCC2)c2ccccc12` [CPI-360] are 0 and 0.
In the case of `CCOc1cc2ncc(C#N)c(Nc3ccc(OCc4ccccn4)c(Cl)c3)c2cc1NC(=O)/C=C/CN(C)C` [Neratinib], the drug sensitivity score was 15.4 in the assay on MDA-MB-453 [1] and 17.9 with MDA-MB-453 [2].
Turning to `Cc1c(-c2c(-c3ccc(F)o3)sc3ncnc(O[C@H](Cc4ccccc4OCc4ccnn4CC(F)(F)F)C(=O)O)c23)ccc(OCCN2CCN(C)CC2)c1Cl`, the drug sensitivity score in the assay on MDA-MB-453 [1] worked out at 4.2; in the assay with MDA-MB-453 [2], 3.3.
The like results for `CNc1nc(Nc2cn(C(C)(C)C#N)nc2C)ncc1C(F)(F)F` [GNE-0877] were, in that order, 0 and 0.
The like results for `Cc1sc2c(c1C)C(c1ccc(Cl)cc1)=N[C@@H](CC(=O)Nc1ccc(O)cc1)c1nnc(C)n1-2` [Birabresib] were, in that order, 15.2 and 15.2.
The like results for `CC[C@H](CO)Nc1nc(NCc2ccccc2)c2ncn(C(C)C)c2n1` [Seliciclib] were, in that order, 0 and 0.2.
For `CN1C(=O)N[C@H](Cc2c[nH]c3c(Cl)cccc23)C1=O` [Necrostatin 2], the drug sensitivity score with MDA-MB-453 [1] and in the assay on MDA-MB-453 [2] was 0 each time.
Turning to `COc1cccc2c1c(O)c(C(=O)N(C)c1ccc(C(F)(F)F)cc1)c(=O)n2C` [Tasquinimod], the drug sensitivity score is 2.9 in the assay on MDA-MB-453 [1] and 1.4 with MDA-MB-453 [2].
The like results for `Nc1nc2[nH]cc(CCc3ccc(C(=O)N[C@@H](CCC(=O)O)C(=O)O)cc3)c2c(=O)[nH]1` [Pemetrexed] were, in that order, 5.4 and 1.8.
The like results for `C[C@]12C=CC(=O)C=C1CC[C@@H]1[C@@H]2[C@@H](O)C[C@@]2(C)[C@H]1CC[C@]2(O)C(=O)CO` [Prednisolone] were, in that order, 8.2 and 0.
Consider `O=C(c1cc(Cc2n[nH]c(=O)c3ccccc23)ccc1F)N1CCN(C(=O)C2CC2)CC1` [Olaparib], for which the figures for the drug sensitivity score in the assay with MDA-MB-453 [1] and with MDA-MB-453 [2] were 1.7 and 0.5, respectively.

For the origin of these results see the supplement of paper PMC7224384.
